What was measured:
[1] = (§1) The drug is tested on Z-028 corresponding to mouse gut metagenome with ENA study accession number: PRJEB37062 and ENA sample accession number: ERS12561827 for biotransformation under anaerobic condition. The drug concentrations were measured over 9 timepoints collected between 0 and 24 hours of incubation by liquid-chromatography-coupled mass spectrometry (LC–MS); conditions: 2 µM
[2] = as §1, with “Z-025” for “Z-028”, “rabbit” for “mouse”, “ERS12561824” for “ERS12561827”; conditions: 2 µM
[3] = as §1, with “Z-022” for “Z-028”, “ERS12561821” for “ERS12561827”; conditions: 2 µM
[4] = as §1, with “Z-013” for “Z-028”, “rabbit” for “mouse”, “ERS12561813” for “ERS12561827”; conditions: 2 µM
[5] = as §1, with “Z-011” for “Z-028”, “ERS12561811” for “ERS12561827”; conditions: 2 µM
[6] = as §1, with “WLS-370” for “Z-028”, “human” for “mouse”, “ERS12561793” for “ERS12561827”; conditions: 2 µM
[7] = as §1, with “WLS-086” for “Z-028”, “human” for “mouse”, “ERS12561752” for “ERS12561827”; conditions: 2 µM
[8] = as §1, with “WLS-027” for “Z-028”, “human” for “mouse”, “ERS12561744” for “ERS12561827”; conditions: 2 µM
[9] = human gut metagenome, 24 h, 2 µM
Also: call rule not given here.

Row | SMILES | Bacterial Biotransformation [1] | Bacterial Biotransformation [2] | Bacterial Biotransformation [3] | Bacterial Biotransformation [4] | Bacterial Biotransformation [5] | Bacterial Biotransformation [6] | Bacterial Biotransformation [7] | Bacterial Biotransformation [8] | Bacterial Biotransformation [9]
1 | C[C@@H](CO)NC(=O)[C@@H]1C=C2c3cccc4[nH]cc(c34)C[C@H]2N(C)C1.O=C(O)/C=C\C(=O)O [ERGONOVINE MALEATE] | Compound NOT metabolized | Compound NOT metabolized | Compound NOT metabolized | Compound NOT metabolized | Compound NOT metabolized | Compound metabolized | Compound metabolized | Compound metabolized | Compound metabolized
2 | OCCOCCN1CCN(C2=Nc3ccccc3Sc3ccccc32)CC1 [QUETIAPINE] | Compound NOT metabolized | Compound metabolized | Compound NOT metabolized | Compound NOT metabolized | Compound NOT metabolized | Compound metabolized | Compound metabolized | Compound metabolized | Compound NOT metabolized
3 | COc1cc2nc(N(C)CCCNC(=O)C3CCCO3)nc(N)c2cc1OC (configuration not stated) [ALFUZOSIN] | Compound NOT metabolized | Compound NOT metabolized | Compound metabolized | Compound NOT metabolized | Compound metabolized | Compound metabolized | Compound metabolized | Compound NOT metabolized | Compound metabolized
